Experimental data from ChEMBL document CHEMBL6109061, “Discovery of an Ultralong-acting Nondepolarizing Neuromuscular Blocker That Displays Short Onset Time and On-Demand Rapid Reversal by a Biocompatible Antagonist” (J Med Chem, 2025).

Legend:
Rattus norvegicus [1] = test: Neuromuscular block activity in propofol-induced anesthetized Sprague-Dawley rat model assessed as onset time required for twitch reduction at 1.5 mg/kg, iv; format: functional
[2] = Toxicity in Sprague-Dawley rat assessed as heart damage at 3 mg/kg, iv measured after 5 hrs by H and E staining based analysis; format: organism-based; details: in vivo
Rattus norvegicus [3] = test: Neuromuscular block activity in propofol-induced anesthetized Sprague-Dawley rat model assessed as onset time required for twitch reduction at 0.04 mg/kg, iv; format: functional
[4] = Toxicity in Sprague-Dawley rat assessed as lung damage at 3 mg/kg, iv measured after 5 hrs by H and E staining based analysis; format: organism-based; details: in vivo
Rattus norvegicus [5] = test: Neuromuscular block activity in propofol-induced anesthetized Sprague-Dawley rat model assessed as inhibition of twitch by measuring twitch intensity of quadriceps muscle at 0.032 mg/kg, iv administered as bolus dose by TOF watch monitor analysis relative to control; format: functional
[6] = Hemolytic activity in rat RBC assessed as hemolysis rate at 2048 microg/ml relative to control; format: toxicity, cell-based, Erythrocyte; details: red blood cells, at 2048 µg/mL, read-out: Activity
Rattus norvegicus [7] = test: Neuromuscular block activity in propofol-induced anesthetized Sprague-Dawley rat model assessed as time duration of 0 to 25 percent recovery indices at 0.032 mg/kg, iv; format: functional
[8] = Toxicity in Sprague-Dawley rat assessed as liver damage at 3 mg/kg, iv measured after 5 hrs by H and E staining based analysis; format: organism-based; details: in vivo
Rattus norvegicus [9] = test: Neuromuscular block activity in propofol-induced anesthetized Sprague-Dawley rat model assessed as time duration of 0 to 25 percent recovery indices at 1.5 mg/kg, iv; format: functional
Rattus norvegicus [10] = test: Neuromuscular block activity in propofol-induced anesthetized Sprague-Dawley rat model assessed as inhibition of twitch by measuring twitch intensity of quadriceps muscle at 1.5 mg/kg, iv administered as bolus dose by TOF watch monitor analysis relative to control; format: functional
Rattus norvegicus [11] = test: Neuromuscular block activity in propofol-induced anesthetized Sprague-Dawley rat model assessed as onset time required for twitch reduction at 10 mg/kg, iv; format: functional
Rattus norvegicus [12] = test: Neuromuscular block activity in propofol-induced anesthetized Sprague-Dawley rat model assessed as inhibition of twitch by measuring twitch intensity of quadriceps muscle at 0.04 mg/kg, iv administered as bolus dose by TOF watch monitor analysis relative to control; format: functional
H9c2 = test: Cytotoxicity against rat H9c2 cells assessed as cell viability at 150 microg/ml measured for 24 hrs by SRB assay; format: toxicity, cell-based; details: h9c2, 24 h, dose 150 µg/ml
Rattus norvegicus [13] = test: Neuromuscular block activity in propofol-induced anesthetized Sprague-Dawley rat model assessed as onset time required for twitch reduction at 0.2 mg/kg, iv; format: functional
Rattus norvegicus [14] = test: Neuromuscular block activity in propofol-induced anesthetized Sprague-Dawley rat model assessed as time duration of 0 to 25 percent recovery indices at 0.04 mg/kg, iv; format: functional
[15] = Solubility of compound in water; format: physicochemical
Rattus norvegicus [16] = test: Neuromuscular block activity in propofol-induced anesthetized Sprague-Dawley rat model assessed as inhibition of twitch by measuring twitch intensity of quadriceps muscle at 3 mg/kg, iv administered as bolus dose by TOF watch monitor analysis relative to control; format: functional
[17] = Mutagenicity in Salmonella typhimurium TA100 by AMES test; format: toxicity; details: salmonella enterica subsp. enterica serovar typhimurium
[18] = Toxicity in Sprague-Dawley rat assessed as spleen damage at 3 mg/kg, iv measured after 5 hrs by H and E staining based analysis; format: organism-based; details: in vivo
Rattus norvegicus [19] = test: Neuromuscular block activity in propofol-induced anesthetized Sprague-Dawley rat model assessed as time duration of 0 to 25 percent recovery indices at 3 mg/kg, iv; format: functional
Rattus norvegicus [20] = test: Neuromuscular block activity in propofol-induced anesthetized Sprague-Dawley rat model assessed as onset time required for twitch reduction at 3 mg/kg, iv; format: functional
[21] = Hemolytic activity in human RBC assessed as hemolysis rate at 2048 microg/ml relative to control; format: toxicity, cell-based, Erythrocyte; details: red blood cells, at 2048 µg/mL, read-out: Activity
[22] = molecular target: Voltage-gated inwardly rectifying potassium channel KCNH2 (Homo sapiens, UniProt Q12809); test: Inhibition of hERG by Qpatch assay; format: toxicity
Sequence of Voltage-gated inwardly rectifying potassium channel KCNH2 (Q12809 whole entry): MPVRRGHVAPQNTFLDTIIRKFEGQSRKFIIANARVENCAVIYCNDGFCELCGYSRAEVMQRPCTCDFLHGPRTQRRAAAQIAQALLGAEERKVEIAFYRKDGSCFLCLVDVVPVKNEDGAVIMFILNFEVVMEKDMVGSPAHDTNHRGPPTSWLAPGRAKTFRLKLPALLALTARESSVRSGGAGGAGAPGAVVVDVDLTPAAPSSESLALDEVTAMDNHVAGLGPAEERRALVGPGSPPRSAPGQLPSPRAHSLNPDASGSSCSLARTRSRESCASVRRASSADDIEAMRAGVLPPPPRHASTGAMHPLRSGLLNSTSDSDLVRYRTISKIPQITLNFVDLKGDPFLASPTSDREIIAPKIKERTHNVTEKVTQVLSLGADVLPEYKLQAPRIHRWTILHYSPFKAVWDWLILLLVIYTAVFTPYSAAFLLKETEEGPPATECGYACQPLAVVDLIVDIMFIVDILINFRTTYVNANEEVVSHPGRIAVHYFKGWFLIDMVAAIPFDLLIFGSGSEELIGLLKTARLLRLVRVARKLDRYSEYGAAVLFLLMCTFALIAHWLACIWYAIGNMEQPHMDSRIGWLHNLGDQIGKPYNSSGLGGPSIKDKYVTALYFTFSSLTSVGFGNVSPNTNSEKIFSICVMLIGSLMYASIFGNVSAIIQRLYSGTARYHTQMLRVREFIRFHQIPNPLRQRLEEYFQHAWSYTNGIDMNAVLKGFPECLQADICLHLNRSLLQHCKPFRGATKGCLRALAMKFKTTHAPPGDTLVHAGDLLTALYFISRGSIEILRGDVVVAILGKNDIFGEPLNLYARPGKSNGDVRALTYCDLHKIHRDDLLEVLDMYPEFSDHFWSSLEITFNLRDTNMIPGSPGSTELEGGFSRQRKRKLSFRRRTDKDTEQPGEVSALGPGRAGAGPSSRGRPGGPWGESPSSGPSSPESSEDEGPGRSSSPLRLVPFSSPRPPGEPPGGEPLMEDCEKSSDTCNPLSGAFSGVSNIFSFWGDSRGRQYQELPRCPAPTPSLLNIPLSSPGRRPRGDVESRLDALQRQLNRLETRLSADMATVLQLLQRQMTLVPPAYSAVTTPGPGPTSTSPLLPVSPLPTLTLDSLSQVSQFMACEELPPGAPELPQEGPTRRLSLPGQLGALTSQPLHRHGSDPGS

Rattus norvegicus [23] = test: Neuromuscular block activity in propofol-induced anesthetized iv dosed Sprague-Dawley rat model assessed as effective dose; format: functional
[24] = Toxicity in Sprague-Dawley rat assessed as kidney damage at 3 mg/kg, iv measured after 5 hrs by H and E staining based analysis; format: organism-based; details: in vivo
Rattus norvegicus [25] = test: Neuromuscular block activity in propofol-induced anesthetized Sprague-Dawley rat model assessed as time duration of 0 to 25 percent recovery indices at 0.2 mg/kg, iv; format: functional
[26] = Mutagenicity in Salmonella typhimurium TA97a by AMES test; format: toxicity; details: salmonella enterica subsp. enterica serovar typhimurium
Rattus norvegicus [27] = test: Neuromuscular block activity in propofol-induced anesthetized Sprague-Dawley rat model assessed as time duration of 0 to 25 percent recovery indices at 10 mg/kg, iv; format: functional
Rattus norvegicus [28] = test: Neuromuscular block activity in propofol-induced anesthetized Sprague-Dawley rat model assessed as onset time required for twitch reduction at 0.032 mg/kg, iv; format: functional
Rattus norvegicus [29] = test: Neuromuscular block activity in propofol-induced anesthetized Sprague-Dawley rat model assessed as inhibition of twitch by measuring twitch intensity of quadriceps muscle at 0.2 mg/kg, iv administered as bolus dose by TOF watch monitor analysis relative to control; format: functional
[30] = Toxicity in iv dosed ICR mouse assessed as maximum tolerated dose; format: organism-based; details: in vivo
Rattus norvegicus [31] = test: Neuromuscular block activity in propofol-induced anesthetized Sprague-Dawley rat model assessed as inhibition of twitch by measuring twitch intensity of quadriceps muscle at 10 mg/kg, iv administered as bolus dose by TOF watch monitor analysis relative to control; format: functional
[32] = Mutagenicity in Salmonella typhimurium TA98 by AMES test; format: toxicity; details: salmonella enterica subsp. enterica serovar typhimurium
Rattus norvegicus [33] = test: Neuromuscular block activity in propofol-induced anesthetized Sprague-Dawley rat model assessed as recovery time at 0.032 mg/kg, iv; format: functional

Cc1n2cc[n+]1Cc1ccc(cc1)Oc1ccc(cc1)C[n+]1ccn(c1C)CCCn1cc[n+](c1C)Cc1ccc(cc1)Oc1ccc(cc1)C[n+]1ccn(c1C)CCC2.[Cl-].[Cl-].[Cl-].[Cl-]
Time (Rattus norvegicus [1]): 13 s | Activity [2]: Non-toxic | Time (Rattus norvegicus [3]): 90 s | Activity [4]: Non-toxic | inhibition in vivo at 0.032 mg/kg (Rattus norvegicus [5]): 90% | hemolysis at 2048 microg/ml [6]: < 5% | Time (Rattus norvegicus [7]): 35 min | Activity [8]: Non-toxic | Time (Rattus norvegicus [9]): >300 min | inhibition in vivo at 1.5 mg/kg (Rattus norvegicus [10]): 100% | Time (Rattus norvegicus [11]): 9 s | inhibition in vivo at 0.04 mg/kg (Rattus norvegicus [12]): 90% | Activity (H9c2): Non-toxic | Time (Rattus norvegicus [13]): 20.5 s | Time (Rattus norvegicus [14]): 102 min | solubility [15]: ≥ 50 mM | inhibition in vivo at 3 mg/kg (Rattus norvegicus [16]): 100% | Activity [17]: Non-toxic | Activity [18]: Non-toxic | Time (Rattus norvegicus [19]): >300 min | Time (Rattus norvegicus [20]): 9 s | hemolysis at 2048 microg/ml [21]: < 5% | IC50 [22]: > 40 µM | ED50 (Rattus norvegicus [23]): 0.016 mg/kg | Activity [24]: Non-toxic | Time (Rattus norvegicus [25]): 217 min | Activity [26]: Non-toxic | Time (Rattus norvegicus [27]): >300 min | Time (Rattus norvegicus [28]): 293 s | inhibition in vivo at 0.2 mg/kg (Rattus norvegicus [29]): 100% | MTD [30]: 550 mg/kg | inhibition in vivo at 10 mg/kg (Rattus norvegicus [31]): 100% | Activity [32]: Non-toxic | Time (Rattus norvegicus [33]): 7.6 min
